This experiment has as its target T1, P2X7 (Homo sapiens, UniProt Q99572).
T1 construct: endogenous in cells; host or cells: THP-1 human monocytic cell line
T1 sequence (Q99572 1-595): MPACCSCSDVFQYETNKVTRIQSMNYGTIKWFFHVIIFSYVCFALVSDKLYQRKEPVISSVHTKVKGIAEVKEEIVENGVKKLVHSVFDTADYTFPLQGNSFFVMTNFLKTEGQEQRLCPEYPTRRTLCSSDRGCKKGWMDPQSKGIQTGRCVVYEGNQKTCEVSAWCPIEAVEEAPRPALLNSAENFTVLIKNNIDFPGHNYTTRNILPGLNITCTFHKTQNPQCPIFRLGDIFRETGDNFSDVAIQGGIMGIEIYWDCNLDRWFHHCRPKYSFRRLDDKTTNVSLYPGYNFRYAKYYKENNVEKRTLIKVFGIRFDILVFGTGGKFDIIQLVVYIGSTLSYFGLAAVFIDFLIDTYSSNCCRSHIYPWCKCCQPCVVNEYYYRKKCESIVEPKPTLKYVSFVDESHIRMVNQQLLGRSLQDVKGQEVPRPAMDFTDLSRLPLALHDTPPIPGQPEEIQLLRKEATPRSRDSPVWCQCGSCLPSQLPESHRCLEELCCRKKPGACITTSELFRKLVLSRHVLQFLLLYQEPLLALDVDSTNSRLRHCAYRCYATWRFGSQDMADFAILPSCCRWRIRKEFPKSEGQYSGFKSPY
Put plainly: THP-1 YoPro uptake assay (BzATP-stimulated Yo-Pro-1 uptake). The experiment is classed as cell-based. The note with it: Table F-10, THP-1 cells, read-out: mean pIC50 values for P2X7 antagonism (converted). The procedure: The human monocytic cell line THP-1 was grown as a suspension culture in RPMI medium supplemented with 10% fetal bovine serum, penicillin/streptomycin (50 units/mL), 2 mM L-glutamine, and 20 μM 2-mercaptoethanol. Cells were maintained at a density below 0.5 million per mL. On the day of the assay, cells were washed twice with assay buffer, and then resuspended at 2 million per mL in assay buffer containing 2 μM Yo-Pro-1 (Invitrogen). The assay buffer contained (in mM): 280 sucrose, 5 KCl, 10 glucose, 10 HEPES, 5 N-methyl-D-glucamine. The cells were added at 200 k/well into poly-D-lysine-coated black-walled 96-well plates (Biocoat, Becton-Dickinson). Test compounds were dissolved in DMSO, and then added at the test concentration to each well of the 96-well plate. Concentration dependence of block was determined by exposing each well of cells in duplicate rows of a 96-well plate to a serial dilution of test compound. The concentration series usually started at 10 μM with a three-fold decrement in concentration. The final DMSO concentration seen by the cells was less than 0.5%. Cells were incubated with test compounds for 30 minutes at 37° C. A background reading was taken using a Gemini SpectraMax with 490 nm excitation and 530 nm emission. […] After incubation for 60 minutes at 37° C., an endpoint read was taken in the SpectraMax plate reader. The amount of block of the response was determined by comparing the fluorescence intensity in each well to the average of control wells on each plate. The control wells contained either a known antagonist of P2X7 (positive controls) or a concentration of DMSO equal to that in the test wells. Data were analyzed using a nonlinear regression program (Origin, OriginLab, MA). Results are reported as the −log of the IC50 (pIC50).
As to `O=C(NCC(c1cnc(C(F)(F)F)nc1)N1CCOCC1)c1c(Cl)ccc2nc(NCc3ccccc3)ccc12` (centres unmarked) [Compound 434], the IC50 is 14.5 nM.

With `O=C(NCC(c1cnc(C(F)(F)F)nc1)N1CCOCC1)c1c(Cl)ccc2nc(NCc3cccnc3)ccc12` (centres unmarked) [Compound 435], the IC50 is 77.6 nM.

Consider `CC1CN(c2ccc3c(C(=O)NCC(c4cnc(C(F)(F)F)nc4)N4CCOCC4)c(Cl)ccc3n2)CC(C)N1` (centres unmarked) [Compound 436], for which the IC50 is 31.6 nM.

As to `Cc1ccccc1CNc1ccc2c(C(=O)NCC(c3cnc(C(F)(F)F)nc3)N3CCOCC3)c(Cl)ccc2n1` (centres unmarked) [Compound 437], the IC50 is 155 nM.

For `O=C(NCC(c1cnc(C(F)(F)F)nc1)N1CCOCC1)c1c(Cl)ccc2nc(NCc3ccc(F)cc3)ccc12` (centres unmarked) [Compound 438], the IC50 is 22.9 nM.

Consider `O=C(NCC(c1cnc(C(F)(F)F)nc1)N1CCOCC1)c1c(Cl)ccc2nc(NCCN3CCOCC3)ccc12` (centres unmarked) [Compound 439], for which the IC50 was 40.7 nM.

Regarding `O=C(NCC(c1cnc(C(F)(F)F)nc1)N1CCOCC1)c1c(Cl)ccc2nc(NCc3ccc4c(c3)OCO4)ccc12` (centres unmarked) [Compound 440], the IC50 is 37.2 nM.

With `O=C(NCC(c1cnc(C(F)(F)F)nc1)N1CCOCC1)c1c(Cl)ccc2nc(N3CCC4(CC3)OCCCO4)ccc12` (centres unmarked) [Compound 441], the IC50 was 24.5 nM.

Consider `O=C(NCC(c1cnc(C(F)(F)F)nc1)N1CCOCC1)c1c(Cl)ccc2nc(N3CCC(N4CCCC4=O)CC3)ccc12` (centres unmarked) [Compound 442], for which the IC50 is 224 nM.

In the case of `CC(=O)N1C[C@H]2CC[C@@H]1N(c1ccc3c(C(=O)NCC(c4cnc(C(F)(F)F)nc4)N4CCOCC4)c(Cl)ccc3n1)C2` (some centres unmarked) [Compound 443], the IC50 was 282 nM.

On to `O=C(NCC(c1cnc(C(F)(F)F)nc1)N1CCOCC1)c1c(Cl)ccc2nc(N3CCCNCC3)ccc12` (centres unmarked) [Compound 444], for which the IC50 is 25.7 nM.

For the molecule `O=C(NCC(c1cnc(C(F)(F)F)nc1)N1CCOCC1)c1c(Cl)ccc2nc(N3CCC(c4n[nH]c(=O)[nH]4)CC3)ccc12` (centres unmarked) [Compound 445], the IC50 is 23.4 nM.

`O=C(NCC(c1cnc(C(F)(F)F)nc1)N1CCOCC1)c1c(Cl)ccc2nc(N3CCC(n4cn[nH]c4=O)CC3)ccc12` (centres unmarked) [Compound 446]: the IC50 was 34.7 nM.

For `O=C(NCC(c1cnc(C(F)(F)F)nc1)N1CCOCC1)c1c(Cl)ccc2nc(NCc3cc(F)cc(F)c3)ccc12` (centres unmarked) [Compound 447], the IC50 is 309 nM.

As to `O=C(NCC(c1cnc(C(F)(F)F)nc1)N1CCOCC1)c1c(Cl)ccc2nc(N3CCC(O)CC3)ccc12` (centres unmarked) [Compound 452], the IC50 was 19.5 nM.

Take `CC1CN(c2ccc3c(C(=O)NCC(c4cnc(C(F)(F)F)nc4)N4CCOCC4)c(Cl)ccc3n2)CCO1` (centres unmarked) [Compound 453]: the IC50 was 20.9 nM.

Take `C[C@H]1CCCN(c2ccc3c(C(=O)NCC(c4cnc(C(F)(F)F)nc4)N4CCOCC4)c(Cl)ccc3n2)C1` (some centres unmarked) [Compound 454]: the IC50 is 19.1 nM.

Consider `O=C(NCC(c1cnc(C(F)(F)F)nc1)N1CCOCC1)c1c(Cl)ccc2nc(N3CCN(CCO)CC3)ccc12` (centres unmarked) [Compound 455], for which the IC50 was 25.7 nM.

For `CC(CO)Nc1ccc2c(C(=O)NCC(c3cnc(C(F)(F)F)nc3)N3CCOCC3)c(Cl)ccc2n1` (centres unmarked) [Compound 456], the IC50 was 7.24 nM.

Take `CCC(C)Nc1ccc2c(C(=O)NCC(c3cnc(C(F)(F)F)nc3)N3CCOCC3)c(Cl)ccc2n1` (centres unmarked) [Compound 457]: the IC50 was 0.955 nM.

Take `O=C(NCC(c1cnc(C(F)(F)F)nc1)N1CCOCC1)c1c(Cl)ccc2nc(N3CC(O)C3)ccc12` (centres unmarked) [Compound 458]: the IC50 was 3.02 nM.

In the case of `O=C(NCC(c1cnc(C(F)(F)F)nc1)N1CCOCC1)c1c(Cl)ccc2nc(N3CCCOCC3)ccc12` (centres unmarked) [Compound 459], the IC50 was 2.63 nM.

Turning to `O=C(NCC(c1cnc(C(F)(F)F)nc1)N1CCOCC1)c1c(Cl)ccc2nc(N3C[C@@H]4CN[C@H]3C4)ccc12` (some centres unmarked) [Compound 460], the IC50 was 8.91 nM.

Take `CC(=O)N1C[C@@H]2C[C@H]1N(c1ccc3c(C(=O)NCC(c4cnc(C(F)(F)F)nc4)N4CCOCC4)c(Cl)ccc3n1)C2` (some centres unmarked) [Compound 461]: the IC50 was 107 nM.

In the case of `CCN(CC)c1ccc2c(C(=O)NCC(c3cnc(C(F)(F)F)nc3)N3CCOCC3)c(Cl)ccc2n1` (centres unmarked) [Compound 462], the IC50 is 9.12 nM.

Turning to `O=C(O)CCCNc1ccc2c(C(=O)NCC(c3cnc(C(F)(F)F)nc3)N3CCOCC3)c(Cl)ccc2n1` (centres unmarked) [Compound 463], the IC50 was 380 nM.

On to `O=C(NCC(c1cnc(C(F)(F)F)nc1)N1CCOCC1)c1c(Cl)ccc2nc(N3CCC(C(=O)O)CC3)ccc12` (centres unmarked) [Compound 464], for which the IC50 was 117 nM.

Take `O=C(NCC(c1cnc(C(F)(F)F)nc1)N1CCC(F)(F)CC1)c1c(Cl)ccc2nc(N3CC(O)C3)ccc12` (centres unmarked) [Compound 465]: the IC50 was 7.76 nM.

In the case of `O=C(NCC(c1cnc(C(F)(F)F)nc1)N1CCC(F)(F)CC1)c1c(Cl)ccc2nc(N3CCCOCC3)ccc12` (centres unmarked) [Compound 466], the IC50 is 8.13 nM.

Consider `CCC(C)Nc1ccc2c(C(=O)NCC(c3cnc(C(F)(F)F)nc3)N3CCC(F)(F)CC3)c(Cl)ccc2n1` (centres unmarked) [Compound 467], for which the IC50 was 6.92 nM.

Regarding `O=C(NCC(c1cnc(C(F)(F)F)nc1)N1CCC(F)(F)CC1)c1c(Cl)ccc2nc(NC3CCOCC3)ccc12` (centres unmarked) [Compound 468], the IC50 is 22.4 nM.

On to `O=C(NCC(c1cnc(C(F)(F)F)nc1)N1CCC(F)(F)CC1)c1c(Cl)ccc2nc(N3CC[C@@H](O)C3)ccc12` (some centres unmarked) [Compound 484], for which the IC50 is 7.76 nM.

With `O=C(NCC(c1cnc(C(F)(F)F)nc1)N1CCC(F)(F)CC1)c1c(Cl)ccc2nc(N3CCNCC3)ccc12` (centres unmarked) [Compound 485], the IC50 was 2.24 nM.

As for `CC(C)Nc1ccc2c(C(=O)NCC(c3cnc(C(F)(F)F)nc3)N3CCC(F)(F)CC3)c(Cl)ccc2n1` (centres unmarked) [Compound 491], the IC50 is 3.8 nM.

As to `CNc1ccc2c(C(=O)NCC(c3cnc(C(F)(F)F)nc3)N3CCC(F)(F)CC3)c(Cl)ccc2n1` (centres unmarked) [Compound 492], the IC50 is 2.45 nM.

In the case of `O=C(NCC(c1cnc(C(F)(F)F)nc1)N1CCC(F)(F)CC1)c1c(Cl)ccc2nc(NC3CC3)ccc12` (centres unmarked) [Compound 493], the IC50 was 8.71 nM.

`C[C@@H]1CN(c2ccc3c(C(=O)NCC(c4cnc(C(F)(F)F)nc4)N4CCC(F)(F)CC4)c(Cl)ccc3n2)C[C@H](C)O1` (some centres unmarked) [Compound 494]: the IC50 was 14.1 nM.

Consider `O=C(NCC(c1cnc(C(F)(F)F)nc1)N1CCC(F)(F)CC1)c1c(Cl)ccc2nc(NCCO)ccc12` (centres unmarked) [Compound 495], for which the IC50 is 7.41 nM.

In the case of `CC(C)Nc1ccc2c(C(=O)NCC(c3cnc(C(F)(F)F)nc3)N3CCOCC3)c(Cl)ccc2n1` (centres unmarked) [Compound 496], the IC50 is 6.61 nM.

For `O=C(NCC(c1cnc(C(F)(F)F)nc1)N1CCOCC1)c1c(Cl)ccc2nc(NCC3CC3)ccc12` (centres unmarked) [Compound 497], the IC50 was 6.17 nM.

For the molecule `O=C(NCC(c1cnc(C(F)(F)F)nc1)N1CCOCC1)c1c(Cl)ccc2nc(NCCO)ccc12` (centres unmarked) [Compound 498], the IC50 is 9.12 nM.

Regarding `O=C(NCC(c1cnc(C(F)(F)F)nc1)N1CCOCC1)c1c(Cl)ccc2nc(N3CC[C@@H](O)C3)ccc12` (some centres unmarked) [Compound 499], the IC50 was 20.9 nM.

In the case of `CNc1ccc2c(C(=O)NCC(c3cnc(C(F)(F)F)nc3)N3CCOCC3)c(Cl)ccc2n1` (centres unmarked) [Compound 500], the IC50 was 10.2 nM.

As to `O=C(NCC(c1cnc(C(F)(F)F)nc1)N1CCOCC1)c1c(Cl)ccc2nc(NC3CC3)ccc12` (centres unmarked) [Compound 501], the IC50 was 10.2 nM.

(Values after patent US8431704B2, “Quinoline or isoquinoline substituted P2X7 antagonists” (Janssen Pharmaceutica NV, priority 2008, dated 2013).)
